Data taken from patent US8461344B2, “Polymorph forms of (2S)-(4E)-N-methyl-5-[3-(5-isopropdxypyridin)yl]-4-penten-2-amine” (Targacept, Inc., priority 2006, dated 2013).

Target: CNS nicotinic receptors
Experiment: Binding to relevant receptor sites
Conditions: free base used to prepare the salt forms, stated in words only
Method: Receptor binding constants provide a measure of the ability of the compound to bind to half of the relevant receptor sites of certain brain cells of the patient. See, Cheng, et al., Biochem. Pharmacol. 22:3099 (1973). The (2S)-(4E)-N-methyl-5-[3-(5-isopropoxypyridin)yl]-4-penten-2-amine compound used to prepare the salt forms has extremely high affinity for the relevant receptors, with a binding affinity in the low nM range.
Binding of the compounds to relevant receptor sites was determined in accordance with the techniques described in U.S. Pat. No. 6,953,855 to Mazurov et al. Inhibition constants (Ki values), reported in nM, were calculated from the IC50 values using the method of Cheng et al., Biochem, Pharmacol. 22:3099 (1973).

- binding affinity: low nM range
Compound: CN[C@@H](C)C/C=C/c1cncc(OC(C)C)c1 [(2S)-(4E)-N-methyl-5-[3-(5-isopropoxypyridin)yl]-4-penten-2-amine]
